Data reported in patent publication US11433042B2, “Methods and compositions for treating metabolic disorders” (Joslin Diabetes Center, Inc., priority 2017, dated 2022).
Entries after “also recorded” stand apart in the source; their conditions may differ.

Key:
[1] = Cold tolerance assay (body core temperature at 4° C.); type: in vivo; settings: mice, 1 μg/kg retro-orbitally, cold challenge at 4° C., compared to vehicle and 12,13-epOME
Method: For cold tolerance assay, mice were injected retro-orbitally with 1 μg/kg body weight 12,13-diHOME (purchased from Cayman Chemical Company) in 0.1% w/v BSA in PBS or vehicle, then immediately placed in a cold room maintained at 4° C. and body core temperature was determined by rectal probe measurements. Mice injected retro-orbitally were also used to measure blood pressure and pulse with the tail cuff method (Hatteras Instruments).

[2] = Daily injections of 12,13-diHOME in diet-induced obese mice; type: in vivo
Method: For the experiments with daily injections of 12,13-diHOME, mice were fed with a high-fat diet containing 60 kcal % fat (Research Diets Stock no. D12492) for 16 weeks prior to treatment and during the course of the experiment. Mice were first injected intraperitoneally daily with 1 ug/kg body weight, 12,13-diHOME in 0.1% BSA w/v in PBS or vehicle and body for one week, then injected every day with 10 ug/kg body weight two weeks. For all experiments, serum was collected and triglycerides were measured using a standard enzymatic assay (ZenBiosystems). Non-esterified FA were also measured with a colorimetric assay (Wako Chemicals USA). High-density and low-density lipoprotein fractions were isolated and cholesterol was measured with a colorimetric assay (Abcam). All mice were allowed ad libitum access to water and food.

[3] = Oral lipid tolerance test; type: in vivo; settings: mice given an oral bolus of triglyceride, serum triglyceride
BAT = assay: In vivo radiolabeled organ distribution studies (oleate, glucose, triolein); settings: mice
Method: For in vivo fatty acid organ distribution studies, an oleate/^3H-oleate tracer mix was complexed to fatty acid-free BSA (Schlein, et al., Cell Metab. 23, 441-453 (2016)) and injected into the tail vein of wild type C57BL/6J mice 15 minutes after treatment with either vehicle, 1 μg/kg body weight 12,13-diHOME in 0.1% BSA PBS or NE. Similarly, radiolabeled organ distribution studies were performed in mice either by injection into the tail vein with 2-desoxy-D-[^14C]-glucose (PerkinElmer, 0.025 mCi per kg) in PBS or orally gavaged with 10 mL/kg olive oil (Sigma) containing [9,10-^3H(N)]-triolein (PerkinElmer, 0.3 mCi/kg). In all assays, organs were harvested after 15 minutes under terminal anesthesia and systemic perfusion with PBS-heparin (10 U/ml) via the left heart ventricle. Tissues were homogenized by using Solvable (PerkinElmer) and disintegrations per minute per organ data were calculated by scintillation counting.

mature brown adipocytes = assay: In vitro fatty acid uptake (FFA-SS-Luc) in brown adipocytes constitutively expressing luciferase; type: cell-based, mice; settings: 1 μM for 15 minutes, 10 μM FFA-SS-Luc
Method: Stromal vascular cells were isolated from interscapular brown adipose tissue dissected from TgLuc mice (Stock no. 008450) obtained from The Jackson Laboratory. Cells were immortalized and differentiated into adipocytes in vitro according to the WT-1 protocol (Tseng, Y. H. et al., Mol. Cell Biol. 24, 1918-1929 (2004)). After 1 hour of serum starvation, mature adipocytes were treated with 1 μM 12,13-diHOME or methyl acetate vehicle in 0.1% w/v BSA in PBS for 15 minutes. After this treatment, cells were incubated with 10 μm FFA-SS-Luc (Intrace Medical) and imaged using the IVIS Spectrum CT using sequential 30 s exposures for 1 hour. Data was analyzed using Living Image Software and movies were assembled from individual images using ImageJ. All cultures were confirmed to be Mycoplasma free.

WT-1 brown adipocytes [4] = assay: 14C-labeled palmitic acid uptake and oxidation; type: cell-based; settings: mature brown adipocytes
Method: FA uptake and oxidation were determined by measuring both ^14C-labeled palmitic acid uptake and conversion of ^14C-labeled palmitic acid into CO2. WT-1 brown preadipocytes were differentiated according to a standard adipogenic differentiation protocol for 9 days before cells were serum starved for 1 hour. Cells were treated with 1 μM 12,13-diHOME or methyl acetate vehicle in 0.1% w/v BSA in PBS for 15 minutes before the culture medium was removed, and cells were incubated with DMEM/H containing 4% FA-free BSA w/v in PBS, 0.5 mM palmitic acid, and 0.2 μCi/mL [1-^14C]-palmitic acid (PerkinElmer Life and Analytical Science, Waltham, Mass.) for 1 h. The incubation medium was transferred to a vial containing 1M acetic acid, capped quickly, and allowed to incubate for 1 h for CO2 gas to be released. The CO2 released was absorbed by hyamine hydroxide, and activity was counted. FA oxidation was calculated from CO2 generated. To measure fatty acid uptake, cells were rinsed twice with PBS and lysed after incubation with [1-^14C]-palmitic acid. Lipids were extracted using a chloroform-methanol mixture (2:1), and ^14C-counts were determined in the organic phase. Protein concentrations were determined by using the Pierce BCA kit (Life Technologies) according to instructions, and FA uptake (^14C lipids in the cells) and oxidation (^14CO2 generated) were normalized to protein content. […]

WT-1 brown adipocytes [5] = assay: Seahorse Bioanalyzer oxygen consumption; type: cell-based
Method: WT-1 brown preadipocytes were seeded onto gelatin coated Seahorse Plates and differentiated according to standard protocols. Cells were starved for 1 h, then treated for 15 min with 1 μM 12,13-diHOME or methyl acetate vehicle. The oxygen consumption rates (OCR) were monitored in 200 μM palmitic acid plus 100 μM albumin in a Seahorse XF24 instrument using the standard protocol of 3 min mix, 2 min wait, and 3 min measure. For the normalization of respiration to protein content, cells were lysed in RIPA buffer and protein concentration was measured using the Pierce BCA kit (Life Technologies).

[6] = diet-induced obese mice, daily for 2 weeks at 10 μg/kg body weight
[7] = obese mice, chronic treatment (i.e., one week)

CCCCCC(O)C(O)C/C=C\CCCCCCCC(=O)O (centres unmarked) [12,13-diHOME, 12,13-dihydroxy-9Z-octadecenoic acid]
body temperature during cold challenge [1]: protected mice from the decrease in body temperature; also recorded: protected mice from cold challenge | body weight [2, 6]: no effect | circulating non-esterified FA [2, 6]: no effect | circulating triglyceride levels [2, 6]: significantly decreased | glucose tolerance [2, 6]: no effect | body weight [2, 7]: without alteration | circulating triglyceride [2, 7]: significant reduction | oral lipid tolerance [3]: improved | FA uptake into BAT (BAT; 1 μg/kg, radiolabeled oleate, similar level achieved by NE): significant increase | glucose uptake into BAT (BAT; radiolabeled glucose, similar level achieved by NE): significant increase | BAT specific uptake of radiolabeled triglyceride (BAT; triglyceride delivered by oral gavage): enhanced | FFA-SS-Luc uptake in vitro (mature brown adipocytes): significantly increased | radiolabeled FA uptake (WT-1 brown adipocytes [4]; 1 μM for 15 minutes, 14C palmitic acid): markedly increased | FA oxidation (WT-1 brown adipocytes [4]; 1 μM, 14C palmitic acid to CO2): trend to increase | basal respiration (WT-1 brown adipocytes [5]; 1 μM for 15 min): significantly increased | maximal respiratory capacity (WT-1 brown adipocytes [5]; data not shown): no effect | uncoupling (WT-1 brown adipocytes [5]; data not shown): no effect
